Reference: ChEMBL document CHEMBL1145121, “Docking studies on alphavbeta3 integrin ligands: pharmacophore refinement and implications for drug design” (J Med Chem, 2003)
pIC50: −log10 of the molar value.

Target: Integrin alpha-V/beta-3 (Homo sapiens, UniProt P05106+P06756)
Assay: Inhibition of binding to alphaV-beta3 integrin
Assay type: protein-complex assay

Integrin alpha-V/beta-3, sequence (P05106 27-788 limits assumed): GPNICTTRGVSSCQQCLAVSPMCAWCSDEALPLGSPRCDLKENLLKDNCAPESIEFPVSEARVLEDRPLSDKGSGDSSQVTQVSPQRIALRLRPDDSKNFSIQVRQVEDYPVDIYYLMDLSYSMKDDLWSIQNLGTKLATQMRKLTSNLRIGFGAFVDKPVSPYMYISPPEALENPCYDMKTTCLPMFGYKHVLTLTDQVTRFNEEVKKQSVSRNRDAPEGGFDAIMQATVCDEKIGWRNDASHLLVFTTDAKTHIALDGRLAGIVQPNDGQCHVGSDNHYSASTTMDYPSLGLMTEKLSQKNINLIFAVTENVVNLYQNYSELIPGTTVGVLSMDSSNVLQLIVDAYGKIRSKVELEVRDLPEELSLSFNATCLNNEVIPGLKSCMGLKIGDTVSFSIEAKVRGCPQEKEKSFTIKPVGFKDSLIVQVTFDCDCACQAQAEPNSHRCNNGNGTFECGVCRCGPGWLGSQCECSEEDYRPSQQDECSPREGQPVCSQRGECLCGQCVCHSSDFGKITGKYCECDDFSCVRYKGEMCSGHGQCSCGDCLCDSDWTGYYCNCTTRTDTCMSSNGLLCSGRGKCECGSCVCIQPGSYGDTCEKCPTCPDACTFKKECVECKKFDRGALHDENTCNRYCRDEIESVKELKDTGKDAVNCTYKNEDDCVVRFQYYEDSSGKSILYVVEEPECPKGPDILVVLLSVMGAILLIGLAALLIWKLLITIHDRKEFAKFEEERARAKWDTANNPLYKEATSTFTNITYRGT
Integrin alpha-V/beta-3, sequence (P06756 31-889 limits assumed): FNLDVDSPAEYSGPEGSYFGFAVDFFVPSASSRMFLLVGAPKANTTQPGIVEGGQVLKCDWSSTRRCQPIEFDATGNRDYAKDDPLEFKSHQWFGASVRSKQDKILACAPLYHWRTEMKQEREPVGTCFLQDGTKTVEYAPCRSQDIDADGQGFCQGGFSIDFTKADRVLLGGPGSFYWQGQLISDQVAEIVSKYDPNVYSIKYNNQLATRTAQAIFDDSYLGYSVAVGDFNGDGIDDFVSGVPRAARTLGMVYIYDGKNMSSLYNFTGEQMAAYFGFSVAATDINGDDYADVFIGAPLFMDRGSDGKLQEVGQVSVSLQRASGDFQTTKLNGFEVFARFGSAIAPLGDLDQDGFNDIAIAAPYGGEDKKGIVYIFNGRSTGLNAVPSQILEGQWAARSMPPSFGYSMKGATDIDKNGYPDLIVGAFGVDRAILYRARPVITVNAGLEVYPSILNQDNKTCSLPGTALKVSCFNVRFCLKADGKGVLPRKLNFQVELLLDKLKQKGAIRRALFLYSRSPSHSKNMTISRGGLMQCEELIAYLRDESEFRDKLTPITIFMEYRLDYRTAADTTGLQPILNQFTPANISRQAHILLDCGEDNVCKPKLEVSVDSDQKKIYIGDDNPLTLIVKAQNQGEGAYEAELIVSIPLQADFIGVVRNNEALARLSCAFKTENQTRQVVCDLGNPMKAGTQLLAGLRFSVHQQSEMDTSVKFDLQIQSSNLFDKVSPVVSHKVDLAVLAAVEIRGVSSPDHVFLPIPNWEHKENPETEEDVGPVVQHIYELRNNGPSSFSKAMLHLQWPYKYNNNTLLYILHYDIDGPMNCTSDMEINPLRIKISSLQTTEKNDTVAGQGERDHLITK
Integrin alpha-V/beta-3, sequence (P06756 891-1048 limits assumed): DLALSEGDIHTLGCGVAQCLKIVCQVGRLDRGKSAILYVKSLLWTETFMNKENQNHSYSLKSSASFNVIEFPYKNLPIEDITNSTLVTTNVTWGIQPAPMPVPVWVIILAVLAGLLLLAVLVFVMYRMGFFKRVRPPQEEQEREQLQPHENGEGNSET

SMILES | pIC50
CC(C)C[C@H]1NC(=O)[C@H](CCCN=C(N)N)NC(=O)CNC(=O)[C@@H](CC(=O)O)NC(=O)[C@@H](Cc2ccccc2)NC1=O | 7.40
NC(=O)[C@@H](CC(=O)O)NC(=O)NNC(=O)c1cccc(N=C(N)N)c1 | 5.14
N=C(N)Nc1cccc(C(=O)NNC(=O)NC(CC(=O)O)c2ccccc2)c1 (stereo unspecified) | 8.59
N=C(N)Nc1cccc(C(=O)NNC(=O)N[C@@H](CC(=O)O)C(N)=O)c1 | 6.82
CC(C)C[C@H]1C(=O)N[C@@H](CCCNC(=N)N)C(=O)NCC(=O)N[C@@H](CC(=O)O)C(=O)N[C@@H]2CCN1C2=O | 9.10
CC(C)C[C@H]1C(=O)N[C@@H](CCCN=C(N)N)C(=O)NCC(=O)N[C@@H](CC(=O)O)C(=O)N[C@H](Cc2ccccc2)C(=O)N1C | 9.22
